# Activity calls are given as the source filed them. The rule behind the calls is not given here.
# Legend:
# MC-38 [1] = experiment: Induction of apoptosis in mouse MC38 cells assessed as early apoptotic cells at 30 nM by Annexin V/PI staining based flow cytometric analysis (reference value: 1.91 %); format: functional
# [2] = target: T1, Macrophage colony-stimulating factor 1 receptor (Homo sapiens, UniProt P07333); experiment: Inhibition of CSF-1R (unknown origin)
# BMDM [3] = experiment: (§1) Induction of repolarization of M2 like macrophage into M1 phenotype in female C57BL/6 mouse BMDM cells assessed as increase in Il1 mRNA expression at 10 to 100 nM stimulated with mouse IL4/IL-13 for 24 hrs followed by compound addition and measured after 24 hrs by qPCR analysis; format: functional, cell-based; conditions: dose 10-100 nM
# MC-38 [4] = experiment: Antitumor activity against mouse MC38 cells allografted in C57BL/6 mouse model assessed as upregulation of Il1 mRNA expression in tumor at 10 to 20 mg/kg, ip administered once daily for 14 days by qPCR analysis; format: functional, organism-based; conditions: dose 10-20 mg/kg, time 14.0 day
# [5] = target: T2, Macrophage colony-stimulating factor 1 receptor (Mus musculus) (UniProt P09581); experiment: Inhibition of CSF-1R signaling pathway activation in female C57BL/6 mouse BMDM cells assessed as reduction in AKT phosphorylation preincubated with compounds for 4 hrs followed by M-CSF stimulation and measured after 30 mins by Western blot analysis; format: cell-based; conditions: dose 10-100 nM, time 4.5 hrs
# T2 sequence (whole entry): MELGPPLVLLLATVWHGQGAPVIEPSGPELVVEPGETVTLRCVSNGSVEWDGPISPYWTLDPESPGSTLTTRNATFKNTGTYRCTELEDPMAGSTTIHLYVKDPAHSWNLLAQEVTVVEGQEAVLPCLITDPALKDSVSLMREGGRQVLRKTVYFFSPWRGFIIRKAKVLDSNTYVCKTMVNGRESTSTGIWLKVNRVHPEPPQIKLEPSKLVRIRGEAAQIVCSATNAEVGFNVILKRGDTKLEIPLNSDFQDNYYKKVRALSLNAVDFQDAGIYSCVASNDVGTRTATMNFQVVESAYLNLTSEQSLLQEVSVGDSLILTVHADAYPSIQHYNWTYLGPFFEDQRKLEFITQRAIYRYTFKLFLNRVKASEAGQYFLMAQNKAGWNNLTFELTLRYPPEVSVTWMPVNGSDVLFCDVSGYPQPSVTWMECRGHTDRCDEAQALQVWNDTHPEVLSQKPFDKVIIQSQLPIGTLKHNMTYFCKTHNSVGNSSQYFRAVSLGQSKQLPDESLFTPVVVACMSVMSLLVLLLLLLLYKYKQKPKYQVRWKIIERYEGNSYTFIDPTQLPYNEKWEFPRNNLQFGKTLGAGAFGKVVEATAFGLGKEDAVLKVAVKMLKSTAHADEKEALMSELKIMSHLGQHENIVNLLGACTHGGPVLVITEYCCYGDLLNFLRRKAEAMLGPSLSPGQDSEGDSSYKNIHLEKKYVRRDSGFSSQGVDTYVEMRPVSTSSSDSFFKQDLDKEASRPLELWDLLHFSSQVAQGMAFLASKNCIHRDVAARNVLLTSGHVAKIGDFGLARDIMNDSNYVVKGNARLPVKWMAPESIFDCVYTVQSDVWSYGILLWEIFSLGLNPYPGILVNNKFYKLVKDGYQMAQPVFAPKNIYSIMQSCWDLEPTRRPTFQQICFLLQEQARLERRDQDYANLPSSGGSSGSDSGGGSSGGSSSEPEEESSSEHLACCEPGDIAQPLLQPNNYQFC
# [6] = test system: Colorectal cancer organoid; experiment: Antitumor activity against patient derived CRC organoids assessed as change in morphology of organoids at 10 to 100 nM incubated for 72 hrs; format: functional, tissue-based; conditions: Homo sapiens, Colorectum, dose 10-100 nM
# [7] = test system: Colorectal cancer organoid; experiment: Antitumor activity against patient derived CRC organoids cocultured with IL-4/13 stimulated M2 macrophages assessed as lytic death state at 10 to 100 nM incubated for 72 hrs; format: functional, tissue-based; conditions: Homo sapiens, Colorectum, dose 10-100 nM
# BMDM [8] = experiment: (§2) Induction of repolarization of M2 like macrophage into M1 phenotype in female C57BL/6 mouse BMDM cells assessed as decrease in Mrc1 mRNA expression at 10 to 100 nM stimulated with mouse IL4/IL-13 for 24 hrs followed by compound addition and measured after 24 hrs by qPCR analysis; format: functional, cell-based; conditions: dose 10-100 nM
# BMDM [9] = experiment: Induction of repolarization of M2 like macrophage into M1 phenotype in female C57BL/6 mouse BMDM cells assessed as decrease in Chil3l mRNA expression at 10 to 100 nM stimulated with mouse IL4/IL-13 for 24 hrs followed by compound addition and measured after 24 hrs by qPCR analysis; format: functional, cell-based; conditions: dose 10-100 nM
# BMDM [10] = experiment: as §1, with “number of M1 macrophages by measuring increase in Nos2” for “Il1 mRNA”, “immunofluorescence” for “qPCR”; format: functional, cell-based; conditions: dose 10-100 nM
# BMDM [11] = experiment: Induction of repolarization of M2 like macrophage into M1 phenotype in female C57BL/6 mouse BMDM cells assessed as decrease in Arg1 mRNA expression at 10 to 100 nM stimulated with mouse IL4/IL-13 for 24 hrs followed by compound addition and measured after 24 hrs by qPCR analysis; format: functional, cell-based; conditions: dose 10-100 nM
# [12] = target: T2, Macrophage colony-stimulating factor 1 receptor (Mus musculus); experiment: Induction of thermal stabilization of CSF-1R in female C57BL/6 mouse BMDM cells assessed as increase in melting temperature at 100 nM incubated for 1 hrs under 52 to 68 degreeC by CETSA; format: cell-based
# [13] = Clearance in Sprague-Dawley rat at 1 mg/kg, iv; format: ADME, organism-based; conditions: in vivo
# MC-38 [14] = experiment: Induction of apoptosis in mouse MC38 cells assessed as late apoptotic cells at 10 nM by Annexin V/PI staining based flow cytometric analysis (reference value: 0.85 %); format: functional
# [15] = test system: Colorectal cancer organoid; experiment: Antitumor activity against patient derived CRC organoids assessed as reduction in number of organoids at 10 to 100 nM incubated for 72 hrs; format: functional, tissue-based; conditions: Homo sapiens, Colorectum, dose 10-100 nM
# BMDM [16] = experiment: as §2, with “number of M2 macrophages by measuring reduction in CD206” for “Mrc1 mRNA”, “immunofluorescence” for “qPCR”; format: functional, cell-based; conditions: dose 10-100 nM
# [17] = target: BDNF/NT-3 growth factors receptor (Homo sapiens) (UniProt Q16620); experiment: Inhibition of TRKB (unknown origin) at 1 uM
# [18] = Terminal half-life in Sprague-Dawley rat at 1 mg/kg, iv; format: ADME, organism-based; conditions: in vivo, read-out: beta t1/2 (converted)
# [19] = target: T1, Macrophage colony-stimulating factor 1 receptor; experiment: Binding affinity to recombinant CSF-1R (unknown origin) assessed as equilibrium dissociation constant by SPR analysis
# [20] = Tmax in Sprague-Dawley rat at 10 mg/kg, po; format: ADME, organism-based; conditions: in vivo
# [21] = target: T1, Macrophage colony-stimulating factor 1 receptor; experiment: Binding affinity to recombinant CSF-1R (unknown origin) assessed as dissociation rate constant by SPR analysis
# MC-38 [22] = experiment: Induction of apoptosis in mouse MC38 cells cocultured with condition medium of M2 macrophages assessed as early apoptotic cells at 100 nM by Annexin V/PI staining based flow cytometric analysis (reference value: 3.16 %); format: functional
# BMDM [23] = experiment: Induction of repolarization of M2 like macrophage into M1 phenotype in female C57BL/6 mouse BMDM cells assessed as increase in Il6 mRNA expression at 10 to 100 nM stimulated with mouse IL4/IL-13 for 24 hrs followed by compound addition and measured after 24 hrs by qPCR analysis; format: functional, cell-based; conditions: dose 10-100 nM
# T1 sequence (P07333 whole entry): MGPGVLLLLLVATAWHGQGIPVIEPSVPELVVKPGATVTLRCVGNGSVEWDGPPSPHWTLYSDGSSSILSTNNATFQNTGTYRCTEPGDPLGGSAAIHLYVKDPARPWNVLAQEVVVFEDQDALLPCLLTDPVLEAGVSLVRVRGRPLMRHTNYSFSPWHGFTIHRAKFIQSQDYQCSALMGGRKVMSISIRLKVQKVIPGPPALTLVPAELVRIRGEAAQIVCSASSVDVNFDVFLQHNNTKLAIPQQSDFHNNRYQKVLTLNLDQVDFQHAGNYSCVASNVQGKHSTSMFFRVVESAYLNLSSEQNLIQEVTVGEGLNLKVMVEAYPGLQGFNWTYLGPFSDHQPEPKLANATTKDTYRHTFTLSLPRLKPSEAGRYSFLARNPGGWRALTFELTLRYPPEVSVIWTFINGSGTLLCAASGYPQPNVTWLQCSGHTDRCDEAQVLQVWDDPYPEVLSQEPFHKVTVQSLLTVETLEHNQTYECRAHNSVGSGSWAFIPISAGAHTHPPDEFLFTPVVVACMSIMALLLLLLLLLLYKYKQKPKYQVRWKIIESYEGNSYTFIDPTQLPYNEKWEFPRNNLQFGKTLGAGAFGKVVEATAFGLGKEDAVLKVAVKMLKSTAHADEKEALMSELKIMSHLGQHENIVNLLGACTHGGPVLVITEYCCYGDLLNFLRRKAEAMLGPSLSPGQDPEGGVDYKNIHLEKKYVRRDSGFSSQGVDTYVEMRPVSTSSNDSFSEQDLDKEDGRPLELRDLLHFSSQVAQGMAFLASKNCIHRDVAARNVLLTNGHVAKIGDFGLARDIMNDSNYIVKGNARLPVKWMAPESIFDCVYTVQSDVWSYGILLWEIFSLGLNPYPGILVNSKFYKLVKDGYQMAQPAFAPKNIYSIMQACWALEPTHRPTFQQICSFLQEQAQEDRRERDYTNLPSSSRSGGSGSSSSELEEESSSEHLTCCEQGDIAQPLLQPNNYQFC
# Chain of BDNF/NT-3 growth factors receptor (Homo sapiens) (Q16620 32-822 limits assumed): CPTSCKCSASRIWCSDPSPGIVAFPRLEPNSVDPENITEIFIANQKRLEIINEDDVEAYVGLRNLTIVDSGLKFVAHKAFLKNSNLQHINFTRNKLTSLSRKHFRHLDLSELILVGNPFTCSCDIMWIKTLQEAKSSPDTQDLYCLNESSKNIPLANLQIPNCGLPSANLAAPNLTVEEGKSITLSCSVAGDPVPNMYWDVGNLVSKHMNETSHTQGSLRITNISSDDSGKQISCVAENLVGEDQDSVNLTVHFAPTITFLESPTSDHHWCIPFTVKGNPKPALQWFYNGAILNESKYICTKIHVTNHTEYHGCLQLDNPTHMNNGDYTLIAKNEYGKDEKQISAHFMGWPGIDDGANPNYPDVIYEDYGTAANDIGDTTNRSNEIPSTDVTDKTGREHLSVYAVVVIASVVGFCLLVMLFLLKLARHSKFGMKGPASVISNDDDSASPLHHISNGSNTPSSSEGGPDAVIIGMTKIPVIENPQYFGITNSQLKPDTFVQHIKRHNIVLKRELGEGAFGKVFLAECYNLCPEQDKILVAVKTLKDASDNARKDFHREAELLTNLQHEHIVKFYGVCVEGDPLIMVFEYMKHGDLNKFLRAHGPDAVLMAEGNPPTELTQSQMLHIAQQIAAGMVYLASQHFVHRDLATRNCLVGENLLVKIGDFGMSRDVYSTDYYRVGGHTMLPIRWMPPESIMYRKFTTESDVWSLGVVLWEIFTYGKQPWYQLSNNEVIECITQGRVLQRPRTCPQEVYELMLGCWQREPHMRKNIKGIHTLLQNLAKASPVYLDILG
structure (smiles),measurement,setting,value
Cc1nc(NC(=O)N[C@@H]2CCCC[C@H]2O)ccc1Oc1c[nH]c2ncc(Cl)cc12,Activity,MC-38 [1],1.71%
same,IC50,[2],20.1 nM
same,Activity,BMDM [3],Active
same,Activity,MC-38 [4],Active
same,inhibition,[5],Dose-dependent-effect
same,Activity,[6],inactive
same,Activity,[7],Active
same,Activity,BMDM [8],Active
same,Activity,BMDM [9],Active
same,Activity,BMDM [10],Active
same,Activity,BMDM [11],Active
same,Activity,[12],Active
same,clearance,[13],31.9 mL/min/kg
same,Activity,MC-38 [14],0.72%
same,Activity,[15],inactive
same,Activity,BMDM [16],Active
same,inhibition,[17],Active
same,half-life,[18],1.2 h
same,Kd,[19],2.96 nM
same,Tmax,[20],1.13 h
same,koff,[21],0.00315 s⁻¹
same,Activity,MC-38 [22],19.91%
same,Activity,BMDM [23],Active
